The test system of assay [1] is LPS from E. coli (O55:B5). In words: Isothermal titration calorimetry (ITC), LPS binding. The following applies: compound (1 mM) into LPS (20 µM), 20 mM HEPES pH 7, 37 °C, mean and SD of three experiments. The protocol: Stock solutions of LPS (10 mg/mL, 0.5 mM) were prepared in 20 mM HEPES at pH 7 by suspension, sonication, and temperature cycling between 4 and 60 °C and stored overnight prior to use. LPS from E. coli (O55:B5) was used. Lipopeptide solutions (1 mM in 20 mM HEPES, pH 7) were titrated into a suspension of LPS (0.020 mM) in the same buffer. Control titrations included the titration of peptide into buffer and buffer into the LPS suspension to determine the corresponding heat of dilution. All binding experiments were performed using a MicroCal PEAQ-ITC Automated microcalorimeter (Malvern Panalytical Ltd., Malvern, UK). The samples were equilibrated to 37 °C prior to measurement. The titrations were conducted at 37 °C under constant stirring at 750 rpm. Each experiment consisted of an initial injection of 0.3 μL followed by 25 separate injections of 1.5 μL into the sample cell of 200 μL. The time between each injection was 180 s, and the measurements were performed with the reference power set at 5 μcal s^–1 and the feedback mode set at “low”. For all calculations performed, an estimated molecular weight of 20 kDa for LPS was applied. The calorimetric data thus obtained were analyzed using MicroCal PEAQ-ITC Analysis Software Version 1.20 (Malvern Panalytical Ltd., Malvern, UK), where the integrated heat signal is corrected for the heat of dilution of the titrant.
Background: Isothermal titration calorimetry measures the heat released or taken up as one component is titrated into another.

The test system of assay [2] is polymyxin-resistant (mcr-1 positive) E. coli. Description: microbe, parasite or virus in culture. The format is cell-based. The following applies: E. coli mcr-1, checkerboard. The protocol: (§1) Selected Gram-negative bacterial strains were taken from glycerol stocks and grown overnight on blood agar. A single colony was inoculated in TSB broth at 37 °C until an optical density of 0.5 at 600 nm (OD600) was reached. The bacterial suspension was diluted in freshly prepared CAMHB to 10^6 CFU/mL. Compounds were diluted along the plate, using 25 μL of CAMHB for each dilution. Antibiotic concentrations were prepared separately in a multiwell reservoir, including a control without antibiotic. Of each antibiotic stock, 25 μL was added to three columns to obtain triplicates for every condition. To each 50 μL containing well was then added 50 μL of the 10^6 CFU/mL bacterial suspension, and the plates were sealed with breathable seals. After incubation for 18 h at 37 °C while shaking, the seals were removed and the density of the bacterial suspensions was measured at 600 nm (OD600) using a Tecan Spark plate reader. The OD600 values were transformed to a 2D gradient with the negative control as the minimum and the positive control as the maximum. The FICI was calculated using the following equation: [drawing 1] with MSCant and MSCcomp indicating the optimal synergistic concentration of antibiotic and compound and MICant and MICcomp, the corresponding MICs of the individual compounds. An FICI ≤ 0.5 indicates synergy.[48]

Assay [3] concerns polymyxin-sensitive E. coli ATCC 25922. In words: microbe, parasite or virus in culture. The format is cell-based. To be noted: E. coli ATCC 25922. The protocol: as §1
Assay [4] has as its system P. aeruginosa ATCC 10145. The format is cell-based. The following applies: P. aeruginosa ATCC 10145. The protocol: (§2) MICs of compounds were determined following CLSI guidelines using the microbroth dilution method in polypropylene plates. Selected Gram-negative bacterial strains (see Table S2 for strain sources) were taken from glycerol stocks and grown overnight on blood agar. Individual colonies were selected and grown in Tryptic Soy Broth (TSB) to an OD600 of 0.5. Compounds were diluted in Mueller Hinton Broth (MHB) supplemented with Mg^2+ and Ca^2+ at final concentrations of 12 and 20 mg/L, respectively (CAMHB). 50 μL was used for each well, and compounds were assessed in triplicates. Bacterial culture was diluted in CAMHB to 10^6 CFU/mL, yielding 5 × 10^5 CFU/mL upon addition of 50 μL of culture to 50 μL of compound solution. Positive and negative (sterility) controls were present on each plate. Plates were sealed with a semipermeable membrane and incubated for 22 h (A. baumannii) or 18 h (other strains) under shaking at 37 °C.

Assay [5] deals with E. coli JW3596 (ΔwaaC). It counts as cell-based. The following applies: truncated LPS, CLSI microbroth dilution, CAMHB, 18 h, 37 °C, triplicate. The protocol:
as §2
Background: Broth dilution looks for growth in wells or tubes with falling amounts of substance.

Assay [6] concerns A. baumannii ATCC 19606. The format is cell-based. To be noted: A. baumannii ATCC 19606. How it is done:
as §2

Assay [7] deals with E. coli JW3594 (ΔwaaD). It counts as cell-based. To be noted: truncated LPS, CLSI microbroth dilution, CAMHB, 18 h, 37 °C, triplicate. How it is done:
as §2

For assay [8], the system named is P. aeruginosa 2018-007. The format is cell-based. The following applies: P. aeruginosa 2018-007; CLSI microbroth dilution, CAMHB, 18 h, 37 °C, triplicate. The protocol: as §2
Assay [9] has as its system P. aeruginosa ATCC 27853. The format is cell-based. To be noted: P. aeruginosa ATCC 27853; CLSI microbroth dilution, CAMHB, 18 h, 37 °C, triplicate. How it is done:
as §2

Assay [10] concerns E. coli BW25113. The format is cell-based. The following applies: E. coli BW25113; CLSI microbroth dilution, CAMHB, 18 h, 37 °C, triplicate. How it is done: as §2
Assay [11] deals with E. coli ATCC 25922. The format is cell-based. To be noted: E. coli ATCC 25922. How it is done:
as §2

Assay [12] has as its system K. pneumoniae ATCC 13883. It counts as cell-based. The following applies: K. pneumoniae ATCC 13883. The protocol:
as §2

Assay [13] relates to P. aeruginosa NRZ03961. The format is cell-based. To be noted: P. aeruginosa NRZ03961; CLSI microbroth dilution, CAMHB, 18 h, 37 °C, triplicate. How it is done: as §2
Assay [14] has as its system E. coli mcr-1. The format is cell-based. The following applies: CLSI microbroth dilution, CAMHB, 18 h, 37 °C, triplicate. How it is done: as §2
Setting [15] is: CLSI microbroth dilution, CAMHB, 18 h, 37 °C, triplicate.

The source of these data is paper PMC9745799, “Polymyxin Stereochemistry and Its Role in Antibacterial Activity and Outer Membrane Disruption” (ACS Infectious Diseases, 2022).

Structures are written as SMILES. In brackets after ≈: the same amount, converted by molar mass. Several values for one entry are separate records, joined by “and”; a condition that tells them apart may be missing. Equal entries are not always repeated. Positions of bridges follow the written chain, without caps; N, C: chain ends. Non-standard residues stand in square brackets, D forms with d. Residues, ends and D or L forms follow the SMILES beside them. *: point of attachment. dDab = NCC[C@@H](N)C(=O)O; Heptanoyl = CCCCCCC(=O)* Where only a bound is given, the exact number is not on record here.

In general, MIC refers to the smallest concentration in the dilution series that meets the test's criterion for growth inhibition. High values mean a less susceptible organism, low ones a more susceptible organism. Regarding `CCCCCCC(=O)N[C@H](CCN)C(=O)N[C@@H](C(=O)N[C@H](CCN)C(=O)N[C@@H]1CCNC(=O)[C@@H]([C@H](C)O)NC(=O)[C@@H](CCN)NC(=O)[C@@H](CCN)NC(=O)[C@@H](CC(C)C)NC(=O)[C@H](Cc2ccccc2)NC(=O)[C@@H](CCN)NC1=O)[C@H](C)O` [ent-PmxB4] (Heptanoyl-[dDab][dT][dDab][dDab][dDab]F[dL][dDab][dDab][dT]; lactam 4-C), the “ΔΔH, maximum enthalpy observed after subtraction of dilution control” value in assay [1] is -3.485 kcal/mol. Further, the MIC alone is 128 µg/mL in [2] (substance alone) and 128 µg/mL in [3] (checkerboard, substance alone). In addition, in assay [2] (combination with rifampicin, CAMHB, 18 h, 37 °C, OD600, FICI ≤ 0.5 indicates synergy), the FICI was 0.19 and 0.188. Moreover, the MIC in combination in [3] (compound in combination with rifampicin, optimal synergistic concentration) was determined as 8 µg/mL. Besides, the MIC in presence of PMBN in assay [4] (+ PMBN (8 ug/mL)) was greater than 128 µg/mL; in [6] (+ PMBN (8 ug/mL)), greater than 128 µg/mL; in [11] (+ PMBN (8 ug/mL)) it was 128 µg/mL; in assay [12] (+ PMBN (8 ug/mL)), greater than 128 µg/mL. For the same compound, the MIC in presence of SPR741 in assay [4] (+ SPR741 (8 ug/mL)) is greater than 128 µg/mL; in [6] (+ SPR741 (8 ug/mL)) it was greater than 128 µg/mL; in assay [11] (+ SPR741 (8 ug/mL)), 128 µg/mL; in assay [12] (+ SPR741 (8 ug/mL)) it was greater than 128 µg/mL. In addition, the MIC in assay [4] (setting [15]) was greater than 128 µg/mL; in assay [5], 128 µg/mL (≈ 109 µM); in [6] (CLSI microbroth dilution, CAMHB, 22 h, 37 °C, triplicate) it was greater than 128 µg/mL; in assay [7], 128 µg/mL (≈ 109 µM); in assay [8], greater than 128 µg/mL; in [9], greater than 128 µg/mL. In addition, the MIC in assay [10] is greater than 128 µg/mL; in [12] (setting [15]) it was greater than 128 µg/mL; in assay [13], greater than 128 µg/mL; in [14], 128 µg/mL (≈ 109 µM).
